Assay results from article PMC7493195 (Journal of medicinal chemistry, 2020).
Each block holds one compound with its values, some of them ahead of it.

Experiments:
[1] = tested on: MDA-MB-231, H1975 and HCC827 cells; settings: 72 h, three cell lines
FGFR1 = FGFR1 (Homo sapiens, UniProt P11362); experiment: Z’LYTE / LanthaScreen kinase assay; type: biochemical
p-SRC^Y416 [2] = settings: H1975 and HCC827 cells, 1 μM, 2 h
[3] = Stability in mouse liver microsomes; type: in vitro ADME
p-SRC^Y416 [4] = settings: H1975, 1 μM, 2 h, then 0, 2, 4 h postwashout
MEK1/2 and ERK1/2 = experiment: Cellular target engagement, TL13–68 competition pulldown, MEK1/2 and ERK1/2; type: cell-based; settings: H1975 and HCC827 cells, 1 μM, 2 h
p-SRC^Y416 [5] = settings: 3 doses of 5 mg/kg IP, 2 and 4 h after last dose
SRC = SRC (Homo sapiens, UniProt P12931); experiment: Z’LYTE / LanthaScreen kinase assay; type: biochemical
SRC, sequence (P12931 whole entry): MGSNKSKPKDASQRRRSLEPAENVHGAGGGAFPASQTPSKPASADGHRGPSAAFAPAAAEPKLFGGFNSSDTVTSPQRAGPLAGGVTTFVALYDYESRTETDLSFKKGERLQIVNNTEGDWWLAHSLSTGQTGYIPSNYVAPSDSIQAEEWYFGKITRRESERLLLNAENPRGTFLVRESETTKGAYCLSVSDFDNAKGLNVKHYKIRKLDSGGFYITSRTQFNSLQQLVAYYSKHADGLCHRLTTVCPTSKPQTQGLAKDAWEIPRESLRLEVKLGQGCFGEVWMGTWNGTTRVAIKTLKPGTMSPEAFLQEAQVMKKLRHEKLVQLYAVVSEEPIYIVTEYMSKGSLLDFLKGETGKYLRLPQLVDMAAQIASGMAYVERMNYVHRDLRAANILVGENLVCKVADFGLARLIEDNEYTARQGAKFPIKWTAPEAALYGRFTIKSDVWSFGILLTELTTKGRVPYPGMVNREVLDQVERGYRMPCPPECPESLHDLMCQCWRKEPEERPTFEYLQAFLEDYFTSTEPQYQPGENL

[6] = tested on: panel of 468 human kinases; settings: 1 μM, 468 kinases, cited from earlier work
kinases = settings: cited from earlier work

FGFR1, sequence (P11362 22-822): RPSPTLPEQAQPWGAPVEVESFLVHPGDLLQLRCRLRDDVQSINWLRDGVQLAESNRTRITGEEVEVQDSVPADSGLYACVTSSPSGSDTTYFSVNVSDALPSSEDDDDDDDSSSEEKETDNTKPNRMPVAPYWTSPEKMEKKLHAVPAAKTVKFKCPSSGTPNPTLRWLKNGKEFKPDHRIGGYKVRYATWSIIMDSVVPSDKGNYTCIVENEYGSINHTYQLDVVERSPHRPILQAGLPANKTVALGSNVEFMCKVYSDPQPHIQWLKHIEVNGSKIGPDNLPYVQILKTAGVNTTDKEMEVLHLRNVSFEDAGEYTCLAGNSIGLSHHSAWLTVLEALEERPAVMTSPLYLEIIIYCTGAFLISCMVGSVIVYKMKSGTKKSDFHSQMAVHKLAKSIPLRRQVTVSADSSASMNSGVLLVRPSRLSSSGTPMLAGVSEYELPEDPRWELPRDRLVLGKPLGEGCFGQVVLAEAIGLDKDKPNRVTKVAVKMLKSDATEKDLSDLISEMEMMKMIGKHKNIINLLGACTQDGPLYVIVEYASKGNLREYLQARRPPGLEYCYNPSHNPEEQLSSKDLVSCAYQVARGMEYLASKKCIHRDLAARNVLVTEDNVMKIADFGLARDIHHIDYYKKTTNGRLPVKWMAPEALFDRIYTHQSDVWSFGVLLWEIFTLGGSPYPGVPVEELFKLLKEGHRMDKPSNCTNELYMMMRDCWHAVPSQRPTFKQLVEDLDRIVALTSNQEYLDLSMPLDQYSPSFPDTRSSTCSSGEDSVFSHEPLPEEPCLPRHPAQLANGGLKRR

SMILES: CN1CCN(CCOc2cc(OC3CCOCC3)c3c(Nc4c(Cl)ccc5c4OCO5)ncnc3c2)CC1 [AZD0530]
- growth inhibitory potency, in words [1]: weaker potency compared to 15a

- loss of activity on FGFR1 compared to SM1–71 (FGFR1): 20 fold
SMILES: C=CC(=O)Nc1ccccc1Nc1nc(Nc2ccc(N3CCN(C)CC3)cc2)ncc1OCc1ccc(Oc2ccccc2)cc1 [Compound 10c, N-(2-((2-((4-(4-Methylpiperazin-1-yl)phenyl)amino)-5-((4-phenoxybenzyl)oxy)pyrimidin-4-yl)amino)phenyl)acrylamide]

- half-life [3]: 5.2 min
SMILES: C=CC(=O)Nc1ccccc1Nc1nc(Nc2ccc(N3CCN(C)CC3)cc2)ncc1C(=O)Nc1c(C)cccc1Cl [Compound 15a, 4-((2-Acrylamidophenyl)amino)-N-(2-chloro-6-methylphenyl)-2-((4-(4-methylpiperazin-1-yl)phenyl)amino)pyrimidine-5-carboxamide]
- inhibition of p-SRC^Y416 signaling (p-SRC^Y416 [2]): inhibited p-SRC^Y416 signaling
- inhibition of p-SRC^Y416 signaling after washout (p-SRC^Y416 [4]): potent and sustained inhibition of p-SRC^Y416 signaling up to 4 h postwashout
- cellular engagement of MEK1/2 or ERK1/2 (MEK1/2 and ERK1/2): did not engage
- inhibition of p-SRC^Y416 in spleen (p-SRC^Y416 [5]): inhibition of p-SRC^Y416 at 2 and 4 h postdosing

- activity on FGFR1, in words (FGFR1): complete loss of activity
- activity on SRC, in words (SRC): complete loss of activity
SMILES: C=CC(=O)Nc1ccccc1Nc1nc(Nc2ccc(N3CCN(C)CC3)cc2)ncc1C(=O)Nc1ccc(Oc2ccccc2)cc1 [Compound 15i, 4-((2-Acrylamidophenyl)amino)-2-((4-(4-methylpiperazin-1-yl)-phenyl)amino)-N-(4-phenoxyphenyl)pyrimidine-5-carboxamide]

- activity on SRC, in words (SRC): loss of binding
SMILES: C=CC(=O)Nc1ccccc1Nc1nc(Nc2ccc(N3CCC(N4CCN(C)CC4)CC3)cc2)ncc1C(=O)Nc1c(C)cccc1Cl [Compound 17c, 4-((2-Acrylamidophenyl)amino)-N-(2-chloro-6-methylphenyl)-2-((4-(4-(4-methylpiperazin-1-yl)piperidin-1-yl)phenyl)amino)-pyrimidine-5-carboxamide]

SMILES: C=CC(=O)Nc1ccccc1Nc1nc(Nc2ccc(N3CCN(C)CC3)cc2)ncc1Cl [SM1–71]
- selectivity score S(35) ([6]; specified percent inhibition 35%): 0.43
- number of kinases hit [6]: more than 100 kinases

SMILES: COc1cc(Nc2c(C#N)cnc3cc(OCCCN4CCN(C)CC4)c(OC)cc23)c(Cl)cc1Cl [bosutinib]
- number of kinases inhibited (kinases): > 45 kinases

SMILES: Cc1nc(Nc2ncc(C(=O)Nc3c(C)cccc3Cl)s2)cc(N2CCN(CCO)CC2)n1 [dasatinib]
- number of kinases inhibited (kinases): > 30 kinases
